# Data from US6362369B1, “Phthalic acid diamide derivatives fluorine-containing aniline compounds as starting material, agricultural and horticultural insecticides, and a method for application of the insecticides” (Nihon Nohyaku Co., Ltd., priority 1997, dated 2002).
# How the values were obtained:
# [1] = system: diamondback moth (Plutella xylostella); experiment: Insecticidal effect on diamondback moth (Test Example 1); assay type: in vivo; conditions: for Insecticidal effect, Test Example 1 / Insecticidal effect (Test Example 1), judged from mortality: diamondback moth; for Insecticidal effect (Test Example 1), judged from mortality: judged by the criterion of Test Example 1; for Insecticidal effect on diamondback moth (Test Example 1), judged grade: mortality judged according to the criterion shown in Test Example 1
# How it was run: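 Eggs laid by adult moths on Chinese cabbage seedlings, which were immersed in test solution, air-dried and kept at 25 °C. Hatched insects counted 6 days after immersion and mortality calculated, with effect graded by criterion; triplicate groups of 10 insects.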
# [2] = system: rice leafroller (Cnaphalocrocis medinalis); experiment: Insecticidal effect on rice leafroller (Test Example 3); assay type: in vivo; conditions: 500 ppm, 25° C., humidity 70%; for Insecticidal effect, Test Example 3: rice lamina immersed; for Insecticidal effect, Test Example 3 / Insecticidal effect on rice leafroller (Test Example 3), judged grade: four days after inoculation; for Insecticidal effect (Test Example 3), judged from mortality / Insecticidal effect on rice leafroller (Test Example 3), judged grade: rice lamina dip; for Insecticidal effect (Test Example 3), judged from mortality: 4 days after inoculation; for Insecticidal effect on rice leafroller (Test Example 3), judged grade: third-instar larvae
# How it was run: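 Groups of 10 third-instar larvae, in triplicate, are placed on air-dried lamina resting on wet filter paper. Incubation runs four days at 25° C with 70% humidity before survivors and dead are tallied.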
# [3] = mortality judged by criterion of Test Example 1
# [4] = rice leafroller third-instar larvae
# [5] = third-instar larvae of rice leafroller
# [6] = judged by the mortality criterion of Test Example 1
structure (smiles),measurement,setting,value
CCNC(=O)c1cccc(I)c1C(=O)Nc1ccc(OC(F)(F)C(F)F)cc1C [compound 1057],"Insecticidal effect, Test Example 1",[1]; [3],A (100)
same,"Insecticidal effect, Test Example 3",[2]; [4],A (100)
COCCCNC(=O)c1cccc(I)c1C(=O)Nc1ccc(C(F)(F)C(F)(F)F)cc1C [compound 986],"Insecticidal effect, Test Example 1",[1]; [3],A (100)
same,"Insecticidal effect, Test Example 3",[2]; [4],A (100)
Cc1cc(C#CC(C)(C)C)ccc1NC(=O)c1cccc(Cl)c1C(=O)NC(C)C [compound 1301],"Insecticidal effect, Test Example 1",[1]; [3],A (100)
same,"Insecticidal effect, Test Example 3",[2]; [4],A (100)
CC(C)NC(=O)c1c(I)cccc1C(=O)Nc1ccc(C(C)C)c2scnc12 [compound 1763],"Insecticidal effect (Test Example 1), judged from mortality",[1],A (100)
same,"Insecticidal effect (Test Example 3), judged from mortality",[2]; [5],A (100)
Cc1cc(Oc2ccc(C(F)(F)F)cn2)ccc1NC(=O)c1c(Br)cccc1C(=O)NC(C)C [compound 335],"Insecticidal effect, Test Example 1",[1]; [6],A (100)
same,"Insecticidal effect, Test Example 3",[2]; [5],B (99-90)
CC(C)NC(=O)c1c(F)cccc1C(=O)Nc1ccc2c(c1)OCO2 [compound 528],"Insecticidal effect on diamondback moth (Test Example 1), judged grade",[1],A (100)
same,"Insecticidal effect on rice leafroller (Test Example 3), judged grade",[2],A (100)
CCN(CC)C(=O)c1c(F)cccc1C(=O)Nc1ccc(OC(F)(F)C(F)F)cc1C [compound 1529],"Insecticidal effect (Test Example 1), judged from mortality",[1],A (100)
same,"Insecticidal effect (Test Example 3), judged from mortality",[2]; [5],A (100)
Cc1cc(C(F)(F)C(F)(F)F)ccc1NC(=O)c1cccc(Cl)c1C(=O)NCc1ccc(Cl)c(Cl)c1 [compound 1351],"Insecticidal effect, Test Example 1",[1]; [3],A (100)
same,"Insecticidal effect, Test Example 3",[2]; [4],A (100)
CSc1ccc(NC(=O)c2c(Br)cccc2C(=O)NC(C)C)c(C)c1 [compound 333],"Insecticidal effect, Test Example 1",[1]; [6],A (100)
same,"Insecticidal effect, Test Example 3",[2]; [5],D (79-50)
"CC(C)NC(=O)c1cccc(Br)c1C(=O)Nc1ccc(OC(F)(F)F)cc1 [Compound No. 302, 6-bromo-N^1-(4-trifluoromethoxyphenyl)-N^2-isopropylphthalic acid diamide]","Insecticidal effect, Test Example 1",[1]; [6],A (100)
same,"Insecticidal effect, Test Example 3",[2]; [5],D (79-50)
CC(C)NC(=O)c1c(Cl)cccc1C(=O)Nc1cccc(SC(F)(F)F)c1 [compound 99],"Insecticidal effect, Test Example 1",[1]; [6],A (100)
same,"Insecticidal effect, Test Example 3",[2]; [5],A (100)
Cc1cc(C(F)(F)C(F)(F)F)ccc1NC(=O)c1cccc(F)c1C(=O)NCc1ccccc1 [compound 1470],"Insecticidal effect (Test Example 1), judged from mortality",[1],A (100)
same,"Insecticidal effect (Test Example 3), judged from mortality",[2]; [5],A (100)
CCOP(=O)(OCC)c1ccc(NC(=O)c2c(Cl)cccc2C(=O)NC(C)C)c(C)c1 [compound 251],"Insecticidal effect, Test Example 1",[1]; [6],A (100)
same,"Insecticidal effect, Test Example 3",[2]; [5],A (100)
Cc1cc(Br)ccc1NC(=O)c1c(Br)cccc1C(=O)NC(C)C [compound 311],"Insecticidal effect, Test Example 1",[1]; [6],A (100)
same,"Insecticidal effect, Test Example 3",[2]; [5],D (79-50)
C#CCNC(=O)c1cccc(I)c1C(=O)Nc1ccc(C(F)(F)C(F)(F)F)cc1C [compound 990],"Insecticidal effect, Test Example 1",[1]; [3],A (100)
same,"Insecticidal effect, Test Example 3",[2]; [4],A (100)
Cc1cc(OC(F)F)ccc1NC(=O)c1cccc(SCC(F)(F)F)c1C(=O)NC(C)C [compound 797],"Insecticidal effect on diamondback moth (Test Example 1), judged grade",[1],A (100)
same,"Insecticidal effect on rice leafroller (Test Example 3), judged grade",[2],C (89-80)
Cc1cc(OC(F)(F)F)ccc1NC(=O)c1c(F)cccc1C(=O)NC(C)C [compound 564],"Insecticidal effect on diamondback moth (Test Example 1), judged grade",[1],A (100)
same,"Insecticidal effect on rice leafroller (Test Example 3), judged grade",[2],B (99-90)
Cc1cc(C(F)(F)C(F)(F)F)ccc1NC(=O)c1cccc(Cl)c1C(=O)NCCOc1cccc(Cl)c1 [compound 1370],"Insecticidal effect, Test Example 1",[1]; [3],A (100)
same,"Insecticidal effect, Test Example 3",[2]; [4],A (100)
Cc1cc(C(F)(F)C(F)(F)F)ccc1NC(=O)c1cccc(Cl)c1C(=O)NCc1ccccc1C(F)(F)F [compound 1523],"Insecticidal effect (Test Example 1), judged from mortality",[1],A (100)
same,"Insecticidal effect (Test Example 3), judged from mortality",[2]; [5],A (100)
Cc1c(F)cccc1NC(=O)c1cccc(F)c1C(=O)NC(C)C [compound 494],"Insecticidal effect on diamondback moth (Test Example 1), judged grade",[1],A (100)
same,"Insecticidal effect on rice leafroller (Test Example 3), judged grade",[2],A (100)
Cc1cc(C#Cc2ccccc2)ccc1NC(=O)c1cccc(Cl)c1C(=O)NC(C)C [compound 1325],"Insecticidal effect, Test Example 1",[1]; [3],A (100)
same,"Insecticidal effect, Test Example 3",[2]; [4],A (100)
CC(C)NC(=O)c1ccc(Cl)cc1C(=O)Nc1ccc(Cl)cc1Cl [compound 187],"Insecticidal effect, Test Example 1",[1]; [6],A (100)
same,"Insecticidal effect, Test Example 3",[2]; [5],D (79-50)
C#CCNC(=O)c1ccccc1C(=O)Nc1ccc(C(F)(F)C(F)(F)F)cc1C [compound 1411],"Insecticidal effect, Test Example 1",[1]; [3],A (100)
same,"Insecticidal effect, Test Example 3",[2]; [4],A (100)
CCN(CC)C(=O)c1c(C(=O)Nc2cc(Cl)ccc2C)cccc1[N+](=O)[O-] [compound 13],"Insecticidal effect, Test Example 1",[1]; [6],D (79-50)
same,"Insecticidal effect, Test Example 3",[2]; [5],D (79-50)
Cc1cccc(NC(=O)c2c(Br)cccc2C(=O)NC(C)C)c1C [compound 303],"Insecticidal effect, Test Example 1",[1]; [6],A (100)
same,"Insecticidal effect, Test Example 3",[2]; [5],D (79-50)
CC(C)NC(=O)c1cccc([N+](=O)[O-])c1C(=O)Nc1ccc(C(F)(F)F)cc1Cl [compound 740],"Insecticidal effect on diamondback moth (Test Example 1), judged grade",[1],A (100)
same,"Insecticidal effect on rice leafroller (Test Example 3), judged grade",[2],A (100)
CC(C)(C)NC(=O)c1ccccc1C(=O)Nc1ccc2c(c1)OC(F)C(F)(F)O2 (centres unmarked) [compound 1149],"Insecticidal effect, Test Example 1",[1]; [3],A (100)
same,"Insecticidal effect, Test Example 3",[2]; [4],A (100)
Cc1cc(OC(F)F)ccc1NC(=O)c1cccc(C)c1C(=O)NC(C)C [compound 751],"Insecticidal effect on diamondback moth (Test Example 1), judged grade",[1],A (100)
same,"Insecticidal effect on rice leafroller (Test Example 3), judged grade",[2],A (100)
Cc1cc(CCC(C)(C)C)ccc1NC(=O)c1cccc(Cl)c1C(=O)NC(C)C [compound 1323],"Insecticidal effect, Test Example 1",[1]; [3],A (100)
same,"Insecticidal effect, Test Example 3",[2]; [4],A (100)
COc1ccc(NC(=O)c2cccc(I)c2C(=O)NC(C)C)c(C)c1 [compound 376],"Insecticidal effect, Test Example 1",[1]; [6],A (100)
same,"Insecticidal effect, Test Example 3",[2]; [5],A (100)
CN(C(=O)c1ccccc1C(=O)NC(C)(C)C)c1ccc(OC(F)(F)F)cc1 [compound 933],"Insecticidal effect on diamondback moth (Test Example 1), judged grade",[1],A (100)
same,"Insecticidal effect on rice leafroller (Test Example 3), judged grade",[2],A (100)
CC(C)NC(=O)c1cccc(I)c1C(=O)Nc1ccc(C(F)(F)F)cc1Cl [compound 433],"Insecticidal effect, Test Example 1",[1]; [6],A (100)
same,"Insecticidal effect, Test Example 3",[2]; [5],A (100)
Cc1cc(C(F)(F)C(F)(F)F)ccc1NC(=O)c1cccc(Cl)c1C(=O)NCc1cccnc1 [compound 1419],"Insecticidal effect, Test Example 1",[1]; [3],A (100)
same,"Insecticidal effect, Test Example 3",[2]; [4],A (100)
CC(C)NC(=O)c1cccc(Br)c1C(=O)Nc1ccc(C(F)(F)F)cc1Cl [compound 315],"Insecticidal effect, Test Example 1",[1]; [6],A (100)
same,"Insecticidal effect, Test Example 3",[2]; [5],A (100)
Cc1cc(Br)ccc1NC(=O)c1cccc([N+](=O)[O-])c1C(=O)NC(C)C [compound 671],"Insecticidal effect on diamondback moth (Test Example 1), judged grade",[1],A (100)
same,"Insecticidal effect on rice leafroller (Test Example 3), judged grade",[2],D (79-50)
CC(C)NC(=O)c1cccc(F)c1C(=O)Nc1ccc(OC(F)(F)F)cc1Br [compound 563],"Insecticidal effect on diamondback moth (Test Example 1), judged grade",[1],A (100)
same,"Insecticidal effect on rice leafroller (Test Example 3), judged grade",[2],A (100)
COc1cc(NC(=O)c2cccc(I)c2C(=O)NC(C)C)ccc1OC(F)F [compound 384],"Insecticidal effect, Test Example 1",[1]; [6],A (100)
same,"Insecticidal effect, Test Example 3",[2]; [5],C (89-80)
